Data on ten compounds can be found in patent US6696454B2, “Inhibitors of spermidine synthase for the treatment of osteoarthritis and cartilage rehabilitation” (Quark Biotech, Inc., priority 2000, dated 2004).

Data set [1] relates to spermidine synthase. The conditions noted are these: cited from earlier work.
Data set [2] has as its target T1, spermidine synthase (Homo sapiens, UniProt P19623).
T1 construct: host or cells: a variety of mammalian cells (endogenous enzyme)
T1 sequence (P19623 1-302): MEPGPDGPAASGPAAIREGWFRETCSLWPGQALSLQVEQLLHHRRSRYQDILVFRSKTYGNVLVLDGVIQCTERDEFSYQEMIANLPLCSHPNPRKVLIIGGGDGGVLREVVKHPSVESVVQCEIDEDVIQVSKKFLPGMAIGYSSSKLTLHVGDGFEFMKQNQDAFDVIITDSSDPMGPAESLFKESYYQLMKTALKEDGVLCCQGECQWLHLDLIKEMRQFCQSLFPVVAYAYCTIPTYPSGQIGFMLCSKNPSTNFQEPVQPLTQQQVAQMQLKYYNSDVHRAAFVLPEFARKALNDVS
To be noted: variety of mammalian cells exposed to racemic AdoDATO; cited from earlier work.

In the next data set the test system is cell proliferation. The conditions noted are these: cell culture; cited from earlier work.
Data set [3] has as its system spermidine synthase. The conditions noted are these: neonatal rats, cited from earlier work.
Data set [4] relates to mouse alveolar macrophages. To be noted: cited from earlier work; for fusion of macrophages: 1α,25(OH)2D3-induced; for enhanced synthesis of proteins induced by 1α,25(OH)2D3: 9 of the 14 induced proteins.
In data set [5] the test system is proteoglycan subunits bound to type II collagen. To be noted: Sepharose 4B-collagen column loaded with proteoglycan subunits; cited from earlier work.
In another data set the target is T2, alkaline phosphatase (Homo sapiens, UniProt P05186).
T2 construct: alkaline phosphatase produced from cartilage
T2 sequence (P05186 18-501): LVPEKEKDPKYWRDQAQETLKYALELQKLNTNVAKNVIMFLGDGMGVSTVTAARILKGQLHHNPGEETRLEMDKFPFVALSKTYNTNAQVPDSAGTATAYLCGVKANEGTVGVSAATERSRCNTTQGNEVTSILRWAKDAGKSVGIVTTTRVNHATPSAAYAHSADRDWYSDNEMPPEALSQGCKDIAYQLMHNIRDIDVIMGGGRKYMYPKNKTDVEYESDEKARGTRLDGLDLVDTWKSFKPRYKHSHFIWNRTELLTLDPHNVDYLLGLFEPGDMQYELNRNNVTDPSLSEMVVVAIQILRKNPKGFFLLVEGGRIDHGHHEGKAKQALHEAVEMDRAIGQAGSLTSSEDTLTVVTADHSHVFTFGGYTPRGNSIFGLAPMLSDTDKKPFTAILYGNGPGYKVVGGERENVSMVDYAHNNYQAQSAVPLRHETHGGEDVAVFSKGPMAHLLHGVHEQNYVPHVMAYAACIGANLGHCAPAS
To be noted: cited from earlier work.

The subject of another data set is HMSC. Kind of data set: Differentiation marker expression in HMSC treated with cytokines/growth factors. The data set is classed as cell-based, human. On the procedure:
1.1. HMSC—Normal adult articular cartilage progenitor cells were obtained from human cartilage. The cartilage was dissected and cultured in fresh DMEM medium supplemented with 10% FCS, L-glutamine and antibiotics. Two weeks after the cultivation of dissected cartilage, the remaining pieces were removed and the attached cells were used.
(§1) A series of in vitro experiments using HMSC was conducted. The cells were exposed to a panel of treatments which cause either chondrogenic (e.g., IGF-1) or osteogenic and angiogenic (e.g., IL1 and FGF-2) responses. Two rounds of in vitro experiments were performed. Initially, a calibration experiment was carried out in order to determine the time/dose kinetics of the cellular response to the stimuli. Based on this study, a large-scale experiment was performed from which RNA was prepared and used in the course of the gene expression profiling experiments.
In order to validate the differentiation response of the HMSC to the various stimuli, cells exposed to different treatments (Table 1) were tested for the expression of markers specific for osteoblastic and chondroblastic lineages by immunohistochemistry and staining procedures. To optimize the response of HMSC to differentiation treatment, it was studied on cells grown at varying density (sparse and confluent).

The test system of data set [6] is spermidine synthase. Kind of data set: Gene expression profiling of treated HMSC by cDNA microarray hybridization. The data set is classed as cell-based, human. To be noted: HMSC treated with FGF-2. On the procedure:
as §1
cDNA probes were synthesized from 1 μg of polyA RNA derived from every sample using reverse transcriptase (Superscript, Gibco-BRL) and 18-mer oligo-dT primer. Cy3-dCTP (Amersham) or Cy5-dCTP (Amersham) were incorporated during the RT reaction, to label the cDNA. Hybridization, subsequent scanning, and visualization were performed as previously described (Schena, M. et al. (1996) Proc Natl Acad Sci USA 93, 10614-10619). The quality control of hybridizations was performed according to applicant's methods.
Probe 2 in all hybridizations was an identical probe comprised of a pool of 0 time point RNA extractions (Table 4, Common control). This served as a common normalizing probe and allowed us to compare results from different hybridizations in formal statistical analysis. […]

Where [7] appears, read: oral administration for 10 days or 4 months.
The mark [8] stands for this setting: rats, prolonged exposure for 10 days.

`C[C@H]1CC[C@H](N)CC1` [4MCHA, trans-4-methylcyclohexylamine]: in the data set on spermidine synthase [1] (setting [7]), the “spermidine in rat tissue” value was “specific and marked decrease”; the “spermine in rat tissue” value is given as “compensatory increase”. For the same compound, the reduction in spermidine with spermidine synthase [1] (rats, prolonged exposure for 10 days, variety of tissues) is recorded as 70-80%. Besides, in the data set with spermidine synthase [1] (setting [8]), the effect on growth result is recorded as “no obvious effect”, the spermine result was “compensatory increase” and the total polyamine content result is “remained constant”.

As for `NCCCCC[S+](CCN)CC1OC(n2cnc3c(N)ncnc32)C(O)C1O` (centres unmarked) [AdoDATO, S-adenosyl-1,8-diamino-3-thiooctane], on spermidine synthase [2], the cellular spermidine content entry was “drastic decrease” and the putrescine content result is reported as “concomitant elevation”. In addition, the cell proliferation result in the data set on cell proliferation is recorded as “significant decrease”.

On to `C1CCC(NC2CCCCC2)CC1` [DCHA], for which the “levels of all three polyamines on continued treatment” value in the data set on spermidine synthase [3] (continued DCHA treatment) is “returned to normal within two weeks”. In addition, in the data set on spermidine synthase [3] (daily administration), the brain spermidine result is listed as “dose-dependent depletion”; the putrescine and spermine entry is on record as “rise”.

Consider `CC(C=NNC(=N)N)=NNC(=N)N` [MGBG, methylglyoxal bis(guanylhydrazone), reference compound], for which, in data set [4], the fusion of macrophages result is listed as “concomitant inhibition” and the “enhanced synthesis of proteins induced by 1α,25(OH)2D3” value is “greatly diminished”.

`NCCCCN` [putrescine, 1,4-diaminobutane]: in data set [5], the “effect on displacing proteoglycan subunits from collagen column” value (“effect … from collagen column” for short) was “without effect”.

As to `NCCCCNCCCN` [spermidine], in data set [4], the fusion of macrophages result is “restored” and the “enhanced synthesis of proteins induced by 1α,25(OH)2D3” value is listed as “restored”. Further, in data set [5], the “effect … from collagen column” value is given as “strong capacity” and the “proteoglycan subunits removed from the column” value is “about 90%”. At alkaline phosphatase, the “activity of alkaline phosphatase produced from cartilage” value was “increased”.

Turning to `NCCCNCCCCNCCCN` [spermine], in data set [5], the “effect … from collagen column” value is recorded as “without effect”. The “activity of alkaline phosphatase produced from cartilage” value on alkaline phosphatase is given as “increased”.

Turning to FGF-2: fibroblast growth factor, in the data set on HMSC (confluent HMSC, 6 days), the FGFR3 expression entry is recorded as “increased”; the VEGF expression entry is “increased”; the “chondrocyte maturation and cartilage matrix production (Alcian Blue staining)” value is given as “decreased”; the expression of osteocalcin result is given as “increased”. Moreover, in the data set on spermidine synthase [6], the “expression of spermidine synthase gene” value is “up-regulation”.

For “IGF-1: growth factor that is beneficial for normal cartilage function and rehabilitation”, in the data set on HMSC (confluent HMSC, 6 days), the FGFR3 expression entry is “decreased”; the “chondrocyte maturation and cartilage matrix production (Alcian Blue staining)” value was “accelerates”; the “expression of collagen type II” value is recorded as “increased”.

In the case of “IL-1β: the inflammatory cytokine, known to be overproduced in OA joints”, in the data set on HMSC (confluent HMSC, 6 days), the FGFR3 expression entry is “increased”; the VEGF expression result is “increased”; the “chondrocyte maturation and cartilage matrix production (Alcian Blue staining)” value is listed as “decreased”; the expression of osteocalcin result is given as “increased”. In addition, in the data set on HMSC (high doses), the “cytotoxicity to HMSC” value is listed as “cytotoxic”.
